US10597388B2, “Pyridazinone herbicides” (FMC CORPORATION, priority 2014, dated 2020)

Tests used:
Test in all cases: Test C greenhouse herbicide test, pre- and postemergence
Type in all cases: in vivo
[1] = test system: nutsedge, yellow (yellow nutsedge, Cyperus esculentus)
From the text: (§1) Seeds of plant species selected from blackgrass (Alopecurus myosuroides), ryegrass, Italian (Italian ryegrass, Lolium multiflorum), wheat (winter wheat, Triticum aestivum), galium (catchweed bedstraw, Galium aparine), corn (Zea mays), large crabgrass, large (large crabgrass, Digitaria sanguinalis), foxtail, giant (giant foxtail, Setaria faberii), johnsongrass (Sorghum halepense), lambsquarters (Chenopodium album), morningglory (Ipomoea coccinea), nutsedge, yellow (yellow nutsedge, Cyperus esculentus), pigweed (Amaranthus retroflexus), ragweed (common ragweed, Ambrosia elatior), soybean (Glycine max), barnyardgrass (Echinochloa crus-galli), oilseed rape (Brassica napus), waterhemp (common waterhemp, Amaranthus rudis), and velvetleaf (Abutilon theophrasti) were planted into a blend of loam soil and sand and treated preemergence with test chemicals formulated in a non-phytotoxic solvent mixture which included a surfactant.
(§2) At the same time, plants selected from these crop and weed species and also chickweed (common chickweed, Stellaria media), kochia (Kochia scoparia), and oat, wild (wild oat, Avena fatua), were planted in pots containing Redi-Earth® planting medium (Scotts Company, 14111 Scottslawn Road, Marysville, Ohio 43041) comprising spaghnum peat moss, vermiculite, wetting agent and starter nutrients and treated with postemergence applications of test chemicals formulated in the same manner. Plants ranged in height from 2 to 18 cm (1- to 4-leaf stage) for postemergence treatments. Treated plants and controls were maintained in a greenhouse for 13 to 15 d, after which time all species were compared to controls and visually evaluated. Plant response ratings, summarized in Table C, are based on a scale of 0 to 100 where 0 is no effect and 100 is complete control. A dash (-) response means no test result.

[2] = test system: wheat (winter wheat, Triticum aestivum)
From the text: as §1, §2

[3] = test system: johnsongrass (Sorghum halepense)
From the text: as §1, §2

[4] = test system: ragweed (common ragweed, Ambrosia elatior)
From the text: as §1, §2

soybean (Glycine max) = test system: soybean (Glycine max)
From the text: as §1, §2

corn (Zea mays) = test system: corn (Zea mays)
From the text: as §1, §2

[5] = test system: crabgrass, large (large crabgrass, Digitaria sanguinalis)
From the text: as §1, §2

[6] = test system: velvetleaf (Abutilon theophrasti)
From the text: as §1, §2

[7] = test system: blackgrass (Alopecurus myosuroides)
From the text: as §1, §2

[8] = test system: ryegrass, Italian (Italian ryegrass, Lolium multiflorum)
From the text: as §1, §2

[9] = test system: waterhemp (common waterhemp, Amaranthus rudis)
From the text: as §1, §2

[10] = test system: barnyardgrass (Echinochloa crus-galli)
From the text: as §1, §2

[11] = test system: lambsquarters (Chenopodium album)
From the text: as §1, §2

[12] = test system: morningglory (Ipomoea coccinea)
From the text: as §1, §2

[13] = test system: pigweed (Amaranthus retroflexus)
From the text: as §1, §2

[14] = Postemergence, 31 g ai/ha, scale 0 to 100 (0 no effect, 100 complete control)
[15] = Postemergence, 62 g ai/ha, 0 to 100 scale (0 no effect, 100 complete control)
[16] = Postemergence, 250 g ai/ha, scale 0 to 100, 0 no effect, 100 complete control, 13 to 15 d
[17] = Preemergence, 31 g ai/ha, scale 0 to 100, 0 is no effect, 100 is complete control
[18] = Preemergence, 62 g ai/ha, scale 0 to 100, 0 is no effect, 100 is complete control
[19] = Preemergence, 125 g ai/ha, scale 0 to 100, 0 is no effect, 100 is complete control
[20] = Preemergence, 250 g ai/ha, scale 0 to 100, 0 no effect, 100 complete control
[21] = postemergence, 125 g ai/ha, scale 0 to 100, 0 no effect, 100 complete control

With `COC(=O)Oc1c(OC)nn(C)c(=O)c1-c1c(C)ccc2ccccc12` [Compound 136] the “Plant response rating, Nutsedge, Yellow” value [1, 14] was 15, the “Nutsedge, Yellow plant response rating” value [1, 15] was 55 and the “Plant response rating, Nutsedge, Yellow” value [1, 16] was 85. The “Plant response rating, Nutsedge, Yellow” value [1, 17] was 5, the “Plant response rating, Nutsedge, Yellow” value [1, 18] was 35 and the “Plant response rating, Nutsedge, Yellow” value [1, 19] was 70. The “Nutsedge, Yellow plant response rating” value [1, 20] was 80, the “Nutsedge, Yellow plant response rating” value [1, 21] was 75 and the “Plant response rating, Wheat” value [2, 14] was 35. The “Wheat plant response rating” value [2, 15] was 45, the “Plant response rating, Wheat” value [2, 16] was 90 and the “Plant response rating, Wheat” value [2, 17] was 0. For the same molecule, the “Plant response rating, Wheat” value [2, 18] was 10, the “Plant response rating, Wheat” value [2, 19] was 45 and the “Wheat plant response rating” value [2, 20] was 45. For the same molecule, the “Wheat plant response rating” value [2, 21] was 45, the “Plant response rating, Johnsongrass” value [3, 14] was 5 and the “Johnsongrass plant response rating” value [3, 15] was 5. For the same molecule, the “Plant response rating, Johnsongrass” value [3, 16] was 5, the “Plant response rating, Johnsongrass” value [3, 17] was 5 and the “Plant response rating, Johnsongrass” value [3, 18] was 5. The “Plant response rating, Johnsongrass” value [3, 19] was 20, the “Johnsongrass plant response rating” value [3, 20] was 10 and the “Johnsongrass plant response rating” value [3, 21] was 5. For the same molecule, the “Plant response rating, Ragweed” value [4, 14] was 0, the “Ragweed plant response rating” value [4, 15] was 0 and the “Plant response rating, Ragweed” value [4, 16] was 5. The “Plant response rating, Ragweed” value [4, 17] was 95, the “Plant response rating, Ragweed” value [4, 18] was 98 and the “Plant response rating, Ragweed” value [4, 19] was 100. The “Ragweed plant response rating” value [4, 20] was 100, the “Ragweed plant response rating” value [4, 21] was 0 and the “Plant response rating, Soybean” value (soybean (Glycine max); [14]) was 5. For the same molecule, the “Soybean plant response rating” value (soybean (Glycine max); [15]) was 10, the “Plant response rating, Soybean” value (soybean (Glycine max); [16]) was 15 and the “Plant response rating, Soybean” value (soybean (Glycine max); [17]) was 10. The “Plant response rating, Soybean” value (soybean (Glycine max); [18]) was 10, the “Plant response rating, Soybean” value (soybean (Glycine max); [19]) was 10 and the “Soybean plant response rating” value (soybean (Glycine max); [20]) was 20. For the same molecule, the “Soybean plant response rating” value (soybean (Glycine max); [21]) was 10, the “Plant response rating, Corn” value (corn (Zea mays); [14]) was 0 and the “Corn plant response rating” value (corn (Zea mays); [15]) was 5. For the same molecule, the “Plant response rating, Corn” value (corn (Zea mays); [16]) was 10, the “Plant response rating, Corn” value (corn (Zea mays); [17]) was 0 and the “Plant response rating, Corn” value (corn (Zea mays); [18]) was 5. For the same molecule, the “Plant response rating, Corn” value (corn (Zea mays); [19]) was 0, the “Corn plant response rating” value (corn (Zea mays); [20]) was 5 and the “Corn plant response rating” value (corn (Zea mays); [21]) was 10. For the same molecule, the “Plant response rating, Crabgrass, Large” value [5, 14] was 10, the “Crabgrass, Large plant response rating” value [5, 15] was 20 and the “Plant response rating, Crabgrass, Large” value [5, 16] was 35. For the same molecule, the “Plant response rating, Crabgrass, Large” value [5, 17] was 0, the “Plant response rating, Crabgrass, Large” value [5, 18] was 5 and the “Plant response rating, Crabgrass, Large” value [5, 19] was 60. For the same molecule, the “Crabgrass, Large plant response rating” value [5, 20] was 95, the “Crabgrass, Large plant response rating” value [5, 21] was 25 and the “Plant response rating, Velvetleaf” value [6, 14] was 75. The “Velvetleaf plant response rating” value [6, 15] was 95, the “Plant response rating, Velvetleaf” value [6, 16] was 98 and the “Plant response rating, Velvetleaf” value [6, 17] was 75. For the same molecule, the “Plant response rating, Velvetleaf” value [6, 18] was 95, the “Plant response rating, Velvetleaf” value [6, 19] was 100 and the “Velvetleaf plant response rating” value [6, 20] was 100. For the same molecule, the “Velvetleaf plant response rating” value [6, 21] was 90, the “Plant response rating, Blackgrass” value [7, 14] was 10 and the “Blackgrass plant response rating” value [7, 15] was 5. The “Plant response rating, Blackgrass” value [7, 16] was 45, the “Plant response rating, Blackgrass” value [7, 17] was 70 and the “Plant response rating, Blackgrass” value [7, 18] was 80. The “Plant response rating, Blackgrass” value [7, 19] was 70, the “Blackgrass plant response rating” value [7, 20] was 90 and the “Blackgrass plant response rating” value [7, 21] was 30. For the same molecule, the “Plant response rating, Ryegrass, Italian” value [8, 14] was 5, the “Ryegrass, Italian plant response rating” value [8, 15] was 10 and the “Plant response rating, Ryegrass, Italian” value [8, 16] was 35. For the same molecule, the “Plant response rating, Ryegrass, Italian” value [8, 17] was 50, the “Plant response rating, Ryegrass, Italian” value [8, 18] was 55 and the “Plant response rating, Ryegrass, Italian” value [8, 19] was 85. For the same molecule, the “Ryegrass, Italian plant response rating” value [8, 20] was 90, the “Ryegrass, Italian plant response rating” value [8, 21] was 30 and the “Plant response rating, Waterhemp” value [9, 14] was 80. The “Waterhemp plant response rating” value [9, 15] was 80, the “Plant response rating, Waterhemp” value [9, 16] was 100 and the “Plant response rating, Waterhemp” value [9, 17] was 98. The “Plant response rating, Waterhemp” value [9, 18] was 100, the “Plant response rating, Waterhemp” value [9, 19] was 98 and the “Waterhemp plant response rating” value [9, 20] was 100. The “Waterhemp plant response rating” value [9, 21] was 95, the “Plant response rating, Barnyardgrass” value [10, 14] was 15 and the “Barnyardgrass plant response rating” value [10, 15] was 25. The “Plant response rating, Barnyardgrass” value ([10]; Postemergence, 125 g ai/ha, scale 0 to 100, 0 is no effect, 100 is complete control) was 35, the “Plant response rating, Barnyardgrass” value [10, 16] was 40 and the “Plant response rating, Barnyardgrass” value [10, 17] was 25. For the same molecule, the “Plant response rating, Barnyardgrass” value [10, 18] was 50, the “Plant response rating, Barnyardgrass” value [10, 19] was 90 and the “Barnyardgrass plant response rating” value [10, 20] was 95. The “Plant response rating, Lambsquarters” value [11, 14] was 90, the “Lambsquarters plant response rating” value [11, 15] was 90 and the “Plant response rating, Lambsquarters” value [11, 16] was 100. For the same molecule, the “Plant response rating, Lambsquarters” value [11, 17] was 95, the “Plant response rating, Lambsquarters” value [11, 18] was 90 and the “Plant response rating, Lambsquarters” value [11, 19] was 100. The “Lambsquarters plant response rating” value [11, 20] was 100, the “Lambsquarters plant response rating” value [11, 21] was 95 and the “Plant response rating, Morningglory” value [12, 14] was 98. The “Morningglory plant response rating” value [12, 15] was 98, the “Plant response rating, Morningglory” value [12, 16] was 100 and the “Plant response rating, Morningglory” value [12, 17] was 80. For the same molecule, the “Plant response rating, Morningglory” value [12, 18] was 95, the “Plant response rating, Morningglory” value [12, 19] was 98 and the “Morningglory plant response rating” value [12, 20] was 98. The “Morningglory plant response rating” value [12, 21] was 100, the “Plant response rating, Pigweed” value [13, 14] was 75 and the “Pigweed plant response rating” value [13, 15] was 80. For the same molecule, the “Plant response rating, Pigweed” value [13, 16] was 98, the “Plant response rating, Pigweed” value [13, 17] was 100 and the “Plant response rating, Pigweed” value [13, 18] was 100. The “Plant response rating, Pigweed” value [13, 19] was 100, the “Pigweed plant response rating” value [13, 20] was 100 and the “Pigweed plant response rating” value [13, 21] was 85.
